The target in one experiment is T1, α2B receptor (Homo sapiens, UniProt P18089).
T1 construct: host or cells: LM(tk-) cells, line L-NGC-α2B
T1 sequence (P18089 1-450): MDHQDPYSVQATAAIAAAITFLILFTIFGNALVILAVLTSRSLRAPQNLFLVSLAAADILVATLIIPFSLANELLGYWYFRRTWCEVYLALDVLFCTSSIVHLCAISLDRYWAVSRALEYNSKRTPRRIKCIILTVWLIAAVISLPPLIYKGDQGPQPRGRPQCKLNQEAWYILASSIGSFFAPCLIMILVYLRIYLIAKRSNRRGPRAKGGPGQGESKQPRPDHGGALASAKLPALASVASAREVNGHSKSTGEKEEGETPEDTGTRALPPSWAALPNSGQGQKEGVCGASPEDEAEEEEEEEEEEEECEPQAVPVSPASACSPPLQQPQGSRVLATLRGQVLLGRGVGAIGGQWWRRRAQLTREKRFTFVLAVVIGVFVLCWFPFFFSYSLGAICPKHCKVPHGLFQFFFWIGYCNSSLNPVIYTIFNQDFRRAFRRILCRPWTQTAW
As to the kind of experiment: Competition binding, [3H]rauwolscine, human α2B receptor. Summed up: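 Equilibrium displacement of [3H]rauwolscine (0.5 nM) measured on membranes from stably transfected LM(tk−) lines, one per α2 subtype, in glycylglycine buffer at pH 7.6. Nonspecific binding set by 10 μM phentolamine; separation by filtration.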

For experiment [1], the target named is T2, α1B Human Adrenergic Receptor (Homo sapiens, UniProt P35368).
T2 construct: The entire coding region of α1B (1563 bp); expressed in transfected cells
T2 sequence (P35368 1-520): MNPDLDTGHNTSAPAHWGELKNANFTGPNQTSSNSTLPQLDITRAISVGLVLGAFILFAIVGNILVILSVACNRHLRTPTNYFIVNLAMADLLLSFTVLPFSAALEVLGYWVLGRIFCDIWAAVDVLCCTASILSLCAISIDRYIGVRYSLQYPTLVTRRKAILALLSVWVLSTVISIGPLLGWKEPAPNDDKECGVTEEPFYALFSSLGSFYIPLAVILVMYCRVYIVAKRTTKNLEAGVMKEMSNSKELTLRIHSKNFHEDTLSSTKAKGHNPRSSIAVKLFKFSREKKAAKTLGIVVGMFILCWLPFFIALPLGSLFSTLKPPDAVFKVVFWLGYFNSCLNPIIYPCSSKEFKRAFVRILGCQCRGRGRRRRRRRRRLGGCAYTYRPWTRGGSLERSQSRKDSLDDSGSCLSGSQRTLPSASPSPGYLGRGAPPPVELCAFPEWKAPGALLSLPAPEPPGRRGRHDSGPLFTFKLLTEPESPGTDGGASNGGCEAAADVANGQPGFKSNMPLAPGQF
As to the kind of experiment: Radioligand binding, [3H]prazosin, cloned human α1B adrenergic receptor. Summed up:
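[3H]prazosin (0.5 nM) binding was run for 20 min at 37° C in pH 7.5 Tris/MgCl2/ascorbate buffer on membranes of LM(tk−) cells stably expressing the cloned receptor. Filtration through GF/B ended the reaction; 10 μM phentolamine gave nonspecific binding.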

Experiment [2] concerns the target T3, α1C Human Adrenergic Receptor (Homo sapiens, UniProt P35348).
T3 construct: The entire coding region of α1C (1401 bp); expressed in transfected cells
T3 sequence (P35348 1-466): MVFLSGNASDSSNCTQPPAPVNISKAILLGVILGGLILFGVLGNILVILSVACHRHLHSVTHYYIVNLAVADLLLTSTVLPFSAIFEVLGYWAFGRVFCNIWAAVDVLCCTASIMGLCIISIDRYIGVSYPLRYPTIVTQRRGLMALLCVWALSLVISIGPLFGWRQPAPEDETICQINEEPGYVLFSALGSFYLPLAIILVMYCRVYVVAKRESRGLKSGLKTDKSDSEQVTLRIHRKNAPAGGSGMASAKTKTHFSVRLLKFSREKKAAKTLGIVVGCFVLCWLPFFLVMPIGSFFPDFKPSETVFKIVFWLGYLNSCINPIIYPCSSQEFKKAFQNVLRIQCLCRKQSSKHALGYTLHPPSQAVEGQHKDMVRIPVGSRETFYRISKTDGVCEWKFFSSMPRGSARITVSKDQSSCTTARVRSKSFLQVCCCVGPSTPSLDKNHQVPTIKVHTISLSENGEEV
Description: Radioligand binding, [3H]prazosin, cloned human α1C adrenergic receptor. The procedure, abridged: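 Stably transfected mouse LM(tk−) fibroblast membranes bearing the cloned human α1C adrenoceptor served as receptor source. Specific binding was taken as the portion of 0.5 nM [3H]prazosin displaceable by 10 μM phentolamine after 20 min at 37° C., pH 7.5, in Mg2+/ascorbate-containing Tris buffer.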

Setting [3] is: cloned human α1B receptor, LM(tk-) cell membranes, read-out: PKi alpha-1 1b (converted).
The mark [4] stands for this setting: cloned human α1C receptor, LM(tk-) cell membranes, read-out: PKi alpha-1 1c (converted).
Where [5] appears, read: [3H]rauwolscine, LM(tk-) cell line L-NGC-α2B, SEM and n in lines below, read-out: pKi alpha-2 2b (converted).
The mark [6] stands for this setting: cloned human receptor in LM(tk-) cell membranes, SEM and n in lines below, read-out: pKi alpha-1 1b (converted).
Setting [7] is: cloned human receptor in LM(tk-) cell membranes, SEM and n in lines below, read-out: pKi alpha-1 1c (converted).
[8] abbreviates: cloned human receptor in LM(tk-) cell membranes, SEM and n in lines below.

Structures can show the parent of a compound that is named as a salt. Where two headings read alike, the source gives them in different places.

For `COC(=O)C1(c2ccccc2)CCN(CCCNC(=O)C2=C(COCCCN)NC(C)=C(C(C)=O)C2c2ccc([N+](=O)[O-])cc2)CC1` (stereo not drawn) [Example 241, 5-Acetyl-2-((3-aminopropyl)oxy)methyl-1,4-dihydro-3-(N-(3-(4-methoxycarbonyl-4-phenylpiperidin-1-yl)propyl))carboxamido-6-methyl-4-(4-nitro)phenylpyridine], the results for the Ki (at α2B receptor (PKi alpha-2 2b); in experiment [1] (setting [3]); in experiment [2] (setting [4])) were 1170 nM, 490 nM and 4.37 nM, respectively.
For the molecule `COC(=O)C1=C(C)NC(C)=C(C(=O)NCCCN2CCC(c3ccccc3)(c3ccccc3)CC2)C1c1cccc([N+](=O)[O-])c1` (stereo not drawn) [Example 249, 1,4-Dihydro-3-methoxycarbonyl-2,6-dimethyl-4-(3-nitrophenyl)-5-(N-(3-(4,4-diphenylpiperidin-1-yl)propyl)carboxamido)-pyridine], the “PKi alpha-2 2b” value at α2B receptor is 5.91. Moreover, the “PKi alpha-1 1b” value in experiment [1] (cloned human α1B receptor, LM(tk-) cell membranes) was 6.63. In addition, in experiment [2] (setting [4]), the Ki is 0.389 nM.
Regarding `CC1=C(C(=O)NCCCN2CCC(c3ccccc3)CC2)C(c2ccc([N+](=O)[O-])cc2)c2c([nH]c(=O)[nH]c2=O)N1` (stereo not drawn) [Example 63, 1,4-Dihydro-6-methyl-4-(4-nitrophenyl)-5-{N-[3-(4-phenylpiperidin-1-yl)propyl]}carboxamido-[2,3, d]uracilylpyridine], the Ki at α2B receptor (setting [5]) was 132 nM; in experiment [1] (setting [6]) it was 18.6 nM; in experiment [2] (setting [7]), 38.9 nM.
Regarding `COC(=O)C1=C(C)NC(C)=C(C(=O)NCCCN2CCC(c3ccccc3)CC2)C1c1ccc(Cl)c([N+](=O)[O-])c1` (stereo not drawn) [Example 17, 4-(4-Chloro-3-nitrophenyl)-1,4-dihydro-3-methoxycarbonyl-2,6-dimethyl-5-(N-(3-(4-phenylpiperidin-1-yl)propyl)carboxamido)pyridine], the Ki on α2B receptor (setting [5]) was 141 nM; in experiment [1] (setting [6]), 41.7 nM; in experiment [2] (setting [7]) it was 0.537 nM.
As to `CCC1=C(C(N)=O)C(c2ccc([N+](=O)[O-])cc2)C(C(=O)NCCCN2CCC(c3ccccc3)CC2)=C(CC)N1` (stereo not drawn) [Example 121, 5-Carboxamido-2,6-diethyl-1,4-dihydro-4-(4-nitrophenyl)-3-{N-[3-(4-phenylpiperidin-1-yl)propyl]}carboxamidopyridine], the Ki at α2B receptor ([3H]rauwolscine, human α2B receptor, LM(tk−) cells, read-out: pKi alpha-2 2b (converted)) was 257 nM; in experiment [1] (cloned human α1B receptor, LM(tk−) cell membranes, read-out: pKi alpha-1 1b (converted)), 72.4 nM; in experiment [2] (cloned human α1C receptor, LM(tk−) cell membranes, read-out: pKi alpha-1 1c (converted)), 1.32 nM.
In the case of `CCC1=C(C(=O)OC)C(c2ccc([N+](=O)[O-])cc2)C(C(=O)NCCCN2CCC(C(=O)OC)(c3ccccc3)CC2)=C(COCCN)N1` (stereo not drawn) [Example 235, 2-((2-Aminoethyl)oxy)methyl-6-ethyl-1,4-dihydro-5-methoxycarbonyl-3-(N-(3-(4-methoxycarbonyl-4-phenylpiperidin-1-yl)propyl))carboxamido-4-(4-nitro)phenylpyridine], the Ki is 2950 nM at α2B receptor (PKi alpha-2 2b); 219 nM in experiment [1] (cloned human receptor, LM(tk-) cell membranes, mean, read-out: PKi alpha-1 1b (converted)); 2.09 nM in experiment [2] (cloned human receptor, LM(tk-) cell membranes, mean, read-out: PKi alpha-1 1c (converted)).
As to `CCOC(=O)C1(c2ccccc2)CCN(CCCNC(=O)C2=C(COC)NC(CC)=C(C(=O)O)C2c2ccc([N+](=O)[O-])cc2)CC1` (stereo not drawn) [Example 240, 3-(N-3-(4-Ethoxycarbonyl-4-phenylpiperidin-1-yl)propyl)carboxamido-6-ethyl-1,4-dihydro-2-(methyloxy)methyl-4-(4-nitro)phenylpyridine-5-carboxylic Acid], the Ki on α2B receptor (PKi alpha-2 2b) is 6310 nM; in experiment [1] (setting [3]), 4470 nM; in experiment [2] (setting [4]) it was 26.9 nM.
Consider `CC1=C(C(N)=O)C(c2ccc([N+](=O)[O-])cc2)C(C(=O)NC2CCN(Cc3ccccc3)CC2)=C(c2ccoc2)N1.Cl.O` (stereo not drawn) [Example 66], for which the “pKi alpha-2 2b” value on α2B receptor ([3H]rauwolscine, LM(tk-) cell line L-NGC-α2B, SEM and n in lines below) was determined as 5.35. Moreover, in experiment [1] (setting [8]), the “pKi alpha-1 1b” value is on record as 5.36. In addition, the “pKi alpha-1 1c” value in experiment [2] (setting [8]) turned out to be 6.59.
Regarding `COC(=O)C1=C(C)NC(C)=C(C(=O)NCCCN2CCc3cc(OC)c(OC)cc3C2)C1c1ccc([N+](=O)[O-])cc1` (stereo not drawn) [Example 57, 1,4-Dihydro-3-methoxycarbonyl-5-{N-[3-(1,2,3,4-tetrahydro-6,7-dimethoxyisoquinolin-2-yl)propyl]}carboxamido-2,6-dimethyl-4-(4-nitrophenyl)pyridine hydrochloride hydrate], the Ki at α2B receptor (setting [5]) was 1860 nM; in experiment [1] (setting [6]) it was 1230 nM; in experiment [2] (setting [7]), 603 nM.

These data come from patent US6608086B2, “Dihydropyridines and new uses thereof” (Synaptic Pharmaceutical Corporation, priority 1993, dated 2003).
